As a reminder, the EC50 is the concentration giving half of the maximal effect.

Bounds are passed on as bounds.

The text below walks through data of patent US11591341B2 (ALIGOS THERAPEUTICS, INC., priority 2019, dated 2023).

In one assay the test system is HBV. Nature of the assay: HBV-DNA Antiviral Assay Using HepG2.117 Cells (intracellular HBV DNA by qPCR). The following applies: HBV DNA inhibition, HepG2.117 cells, intracellular HBV DNA by qPCR (Table 4); read-out: EC50. It is filed as cell-based, hepatitis B virus (genotype D). Put shortly: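 Endpoint: qPCR copy number of intracellular HBV DNA after 3-day compound exposure, with inhibition set relative to the 2% DMSO control. The cells were doxycycline-free HepG2.117 carrying a Tet-off genotype D genome, dosed at nine 4-fold dilutions. A duplicate plate gave ATP-based viability (CC50).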
On to “13-benzyl-4-(4-bromo-3-chloro- benzoyl)-11-methylene-4,7,9,13- tetrazatricyclo[7.5.0.0^2,7]tetradec-1- ene-8.14-dione [Example 109]”, for which the EC50 was in the range of 100 to 500 nM.

The assay is the same for the next values; noted with them: Hepatitis B virus, HepG2.117.
`CC(C)Oc1ccc(-n2c(C(=O)N[C@@H](C)c3ccc(C#N)cc3)c3n(c2=O)CCN(C(=O)c2ccc(Br)c(Cl)c2)C3)cc1` (stereo in doubt) [Example 234, 7-(4-bromo-3-chloro-benzoyl)-2-(4-isopropoxyphenyl)-3-oxo-N-[rac-(1S)-1-(4-cyanophenyl)ethyl]-6,8-dihydro-5H-imidazo[1,5-a]pyrazine-1-carboxamide] registered an EC50 of 100 to 500 nM.

Compound `COc1ccc(-n2c(C(=O)NCc3ccccc3C#N)c3n(c2=O)CCN(C(=O)c2ccc(Br)c(Cl)c2)C3)cc1` [Example 154, 7-(4-bromo-3-chloro-benzoyl)-N-[(2-cyanophenyl)methyl]-2-(4-methoxyphenyl)-3-oxo-6,8-dihydro-5H-imidazo[1,5-a]pyrazine-1-carboxamide] yielded an EC50 of 100 to 500 nM.

With `C[C@H](NC(=O)c1c2n(c(=O)n1-c1ccc(OC3COC3)cc1)CCN(C(=O)c1ccc(Br)c(Cl)c1)C2)c1ccccc1` (stereo in doubt) [Example 169, 7-(4-bromo-3-chloro-benzoyl)-2-[4-(oxetan-3-yloxy)phenyl]-3-oxo-N-[rac-(1S)-1-phenylethyl]-6,8-dihydro-5H-imidazo[1,5-a]pyrazine-1-carboxamide], the EC50 is 500 to 5000 nM.

Consider `COC1CCC(n2c(C(=O)N[C@@H](C)c3ccccc3)c3n(c2=O)CCN(C(=O)c2ccc(Br)c(Cl)c2)C3)CC1` (mixture of isomers) [Example 247, 7-(4-bromo-3-chloro-benzoyl)-2-(4-methoxycyclohexyl)-3-oxo-N-[rac-(1S)-1-phenylethyl]-6,8-dihydro-5H-imidazo[1,5-a]pyrazine-1-carboxamide], for which the EC50 is more than 5000 nM.

In turn, `COc1ccc(-n2c(C(=O)NC(c3ccccc3)C3CC3)c3n(c2=O)CCN(C(=O)c2ccc(Br)c(Cl)c2)C3)cc1` (racemic) [Example 176, 7-(4-bromo-3-chloro-benzoyl)-2-(4-methoxyphenyl)-3-oxo-N-[rac-(S)-cyclopropyl(phenyl)methyl]-6,8-dihydro-5H-imidazo[1,5-a]pyrazine-1-carboxamide] displayed an EC50 of 100 to 500 nM.

The compound `Cn1cnc2c(CNC(=O)c3c4n(c(=O)n3-c3ccc(OCC(F)(F)F)cc3)CCN(C(=O)c3ccc(Br)c(Cl)c3)C4)cccc21` [Example 400, 7-(4-bromo-3-chloro-benzoyl)-N-[(1-methylbenzimidazol-4-yl)methyl]-3-oxo-2-[4-(2,2,2-trifluoroethoxy)phenyl]-6,8-dihydro-5H-imidazo[1,5-a]pyrazine-1-carboxamide] returned a concentration for a half-maximal effect (EC50) of 100 to 500 nM.

On to `COc1ccc(-n2c(C(=O)NCc3ccccn3)c3n(c2=O)CCN(C(=O)c2ccc(Br)c(Cl)c2)C3)cc1` [Example 191, 7-(4-bromo-3-chloro-benzoyl)-2-(4-methoxyphenyl)-3-oxo-N-(2-pyridylmethyl)-6,8-dihydro-5H-imidazo[1,5-a]pyrazine-1-carboxamide], for which the EC50 was 500 to 5000 nM.

`C[C@H](c1ccccc1)N1C[C@@H](O)Cn2c(c3n(c2=O)CCN(C(=O)c2ccc(Br)c(Cl)c2)C3)C1=O` (stereo in doubt) [Example 202, (11RS)-4-(4-bromo-3-chloro-benzoyl)-11-hydroxy-13-[(1R)-1-phenylethyl]-4,7,9,13-tetrazatricyclo[7.5.0.0^2,7]tetradec-1-ene-8.14-dione] yielded a 50% effective concentration (EC50) of 100 to 500 nM.

In the case of `COc1ccc(-n2c(C(=O)NCc3ccc4c(c3)OCO4)c3n(c2=O)CCN(C(=O)c2ccc(Br)c(Cl)c2)C3)cc1` [Example 182, N-(1,3-benzodioxol-5-ylmethyl)-7-(4-bromo-3-chloro-benzoyl)-2-(4-methoxyphenyl)-3-oxo-6,8-dihydro-5H-imidazo[1,5-a]pyrazine-1-carboxamide], the EC50 was 100 to 500 nM.

For `COc1ccc(-n2c(C(=O)NCc3ccccc3)c3n(c2=O)CCN(C(=O)c2ccc(Cl)c(Cl)c2)C3)c(F)c1` [Example 79, N-benzyl-7-(3,4-dichlorobenzoyl)-2-(2-fluoro-4-methoxy-phenyl)-3-oxo-6,8-dihydro-5H-imidazo[1,5-a]pyrazine-1-carboxamide], the EC50 was in the range of 500 to 5000 nM.

Take `COc1ccc(-n2c(C(=O)N[C@@H](C)c3ccccc3F)c3n(c2=O)CCN(C(=O)c2ccc(Br)c(Cl)c2)C3)cc1` (stereo in doubt) [Example 162, 7-(4-bromo-3-chloro-benzoyl)-2-(4-methoxyphenyl)-3-oxo-N-[rac-(1S)-1-(2-fluorophenyl)ethyl]-6,8-dihydro-5H-imidazo[1,5-a]pyrazine-1-carboxamide]: the EC50 was in the range of 100 to 500 nM.

`COc1ccc(-n2c(C(=O)NCc3ccccc3)c3n(c2=O)CCN(c2ncnc4cc(Cl)ccc24)C3)cc1` [Example 117, N-benzyl-7-(7-chloroquinazolin-4-yl)-2-(4-methoxyphenyl)-3-oxo-6,8-dihydro-5H-imidazo[1,5-a]pyrazine-1-carboxamide] returned a concentration for a half-maximal effect (EC50) of more than 5000 nM.

As for `CC1Cn2c(c(C(=O)NCc3ccccc3-c3ncccn3)n(-c3ccc(OC4CC4)cc3)c2=O)CN1C(=O)c1ccc(Br)c(C#N)c1` (racemic) [Example 451, rac-(6R)-7-(4-bromo-3-cyano-benzoyl)-2-[4-(cyclopropoxy)phenyl]-6-methyl-3-oxo-N-[(2-pyrimidin-2-ylphenyl)methyl]-6,8-dihydro-5H-imidazo[1,5-a]pyrazine-1-carboxamide], the EC50 is 100 to 500 nM.

For the compound `COc1ccc([C@@H](C)NC(=O)c2c3n(c(=O)n2-c2ccc(OC)cc2)CCN(C(=O)c2ccc(Br)c(Cl)c2)C3)cc1` (stereo in doubt) [Example 72, 7-(4-bromo-3-chloro-benzoyl)-2-(4-methoxyphenyl)-3-oxo-N-[rac-(1R)-1-(4-methoxyphenyl)ethyl]-6,8-dihydro-5H-imidazo[1,5-a]pyrazine-1-carboxamide], the EC50 is 500 to 5000 nM.

Turning to `COc1ccc(-n2c(C(=O)N[C@@H](C)c3ccccc3)c3n(c2=O)CCN(C(=O)c2ccc(Br)c(Cl)c2)C3)cc1` (stereo in doubt) [Example 69, 7-(4-bromo-3-chloro-benzoyl)-2-(4-methoxypehnyl)-3-oxo-N-[rac-(1S)-1-phenylethyl]-6,8-dihydro-5H-imidazo[1,5-a]pyrazine-1-carboxamide], the EC50 lay within 100 to 500 nM.

Compound `Cn1ncc2cc(-n3c(C(=O)NCc4ccccc4)c4n(c3=O)CCN(C(=O)c3ccc(Br)c(Cl)c3)C4)ccc21` [Example 364, N-benzyl-7-(4-bromo-3-chloro-benzoyl)-2-(1-methylindazol-5-yl)-3-oxo-6,8-dihydro-5H-imidazo[1,5-a]pyrazine-1-carboxamide] registered an EC50 of 100 to 500 nM.

With `C[C@@H](NC(=O)c1c2n(c(=O)n1-c1ccc(OC3CC3)cc1)CCN(C(=O)c1ccc(Br)c(Cl)c1)C2)c1ccc(OC2COC2)cc1F` (stereo in doubt) [Example 346, 7-(4-bromo-3-chloro-benzoyl)-2-[4-(cyclopropoxy)phenyl]-3-oxo-N-[rac-(1R)-1-[2-fluoro-4-(oxetan-3-yloxy)phenyl]ethyl]-6,8-dihydro-5H-imidazo[1,5-a]pyrazine-1-carboxamide], the EC50 lay in the range of 100 to 500 nM.
